Source: patent US20230381193A1, “METHODS FOR THE TREATMENT OF CHILDHOOD-ONSET FLUENCY DISORDER” (Noema Pharma AG, priority 2021, published 2023)
In brackets after ≈: the same amount, converted by molar mass. Read-outs that look alike come from different tables or passages of the source.

Legend:
[1] = Stability in suspension vehicle and parenteral formulation; type: physicochemical; conditions: 0.5% HPC/1% Tween 80, up to 5 weeks at RT
Experimental: For parenteral administration, a 30% Kleptose formulation (1.5 mg/ml, physiologic osmolality, pH 6.2), with a stability of at least 4 weeks at 40° C. was developed.

[2] = Preliminary solid state stability (UPLC analysis); type: physicochemical
Experimental: A defined amount of the crystalline form of the free base of the compound of Formula I (0.2-0.8 mg) was weighed into a 1.8 mL HPLC vial and stored open (75% RH) or closed (ambient) at the temperature and the time indicated. After incubation, compound was dissolved in 1-1.5 mL NMP to a final concentration of 0.2-0.5 mg/mL and submitted to UPLC analysis (254 nm).

[3] = Preliminary forced degradation study (acidic, basic, oxidative, photolytic stress; excipient compatibility); type: physicochemical
Experimental: Stability: Preliminary forced degradation study of the crystalline form of the free base of the compound of Formula I in acidic, basic, oxidative, and photolytic stress conditions was conducted to investigate the viability of the crystalline form in various stress conditions. Since the solubility of the compound of Formula I was low in the standard solvent ethanol, ethanol was replaced by N-methyl-2-pyrrolidone (NMP).
The crystalline form of the free base of the compound of Formula I was stable for up to 8 days in solid state at 80° C. and in solution at pH 3 to pH 7 at RT. […] The crystalline form was stable after exposure to light in solid state.

[4] = Solubility of the crystalline form; type: physicochemical; conditions: for solubility: thermodynamic from solid
Experimental: Solubility in simulated gastric fluid (SGF), fasted state simulated intestinal fluid (FaSSIF), and fed state simulated intestinal fluid (FeSSIF) was 0.019 mg/ml, 0.006 mg/mL, and 0.022 mg/mL, respectively. Solubility increased 50-100-fold in the presence of surfactants (e.g., Tween-80, sodium dodecyl sulfate, dioctyl sulfosuccinate, or Pluronic F68) and cyclodextrins; however it was still rather low.

[5] = Thermodynamic stability of crystalline form; type: physicochemical; conditions: at least between 20° C. and 60° C.
SD rats [6] = assay: Oral glucose tolerance test, first study (acute treatment); conditions: 3 and 10 mg/kg
Experimental: The study was conducted on 10-week male SD rats fed with chow diet. The glucose challenge was performed 1 hour post last treatment. The glucose load was done per os per gavage (2 g/kg BW), and the formulation was made in saline. The blood glucose and plasma insulin were measured at 0 (before challenge), +15, +30, +60 and +120 minutes. Blood was sampled in EDTA coated tubes, and the blood samples were kept on ice until centrifuged at 4° C. ELISA for Insulin (Mercodia, Uppsala Sweden) and Fluorometric for measuring glucose (AccuCheck System) were used for the analysis. Data Analysis was done using the software JMP for Windows (Version 5.01, SAS institute Inc., SAS Campus Drive, Cary, NC 27513). Analysis of Variance ANOVA (alpha 0.05 and 0.01) followed by Dunnett's test (comparison vs. Control).

SD rats [7] = assay: Oral glucose tolerance test, second study (acute treatment); type: in vivo, rat; conditions: 10 mg/kg; for Glucose tolerance (oral glucose tolerance test): glucose 2 g/kg per os 1 hour post treatment
Experimental: The second study assessed the impact of acute treatment with the compound of Formula I. The study was conducted on 9-week male SD rats, which were fed with chow diet.

SD rats [8] = assay: Oral glucose tolerance test, third study (sub-chronic, 8 days, alone or in combination); type: in vivo, rat
Experimental: The third study evaluated sub-chronic (8 days) effects of the compound of Formula I alone or in combination with Olanzapine. […] The insulin was measured at time 0 only.

[9] = test system: adult male patients with COFD; assay: Study A: open-label Phase IIa 6-week study of safety and efficacy in COFD; type: in vivo, human; conditions: 5 to 15 mg, once daily, oral; study design criterion
Experimental: Provided below is an open-label, Phase IIa, multi-center, 6-week prospective study to evaluate the safety and efficacy of the compound of Formula I at a daily dose range of 5 mg to 15 mg in adult male patients with COFD.

## Cn1ncc(C(=O)N2CCOCC2)c1C(=O)Nc1ccn2nc(-c3ccccc3)nc2c1 [1-methyl-4-(morpholine-4-carbonyl)-N-(2-phenyl[1,2,4]triazolo[1,5-a]pyridin-7-yl)-1H-pyrazole-5-carboxamide]
[1]
  Particle growth and hydrate formation in suspension vehicle: only minor particle growth and no hydrate formation
  Stability in suspension vehicle: stable
[2]; 4 w 60° C.
  UPLC analysis (Area % main peak): 100 Area %
[2]; 4 w, 4° C.
  UPLC analysis (Area % main peak): 100 Area %
[2]; 4 w, 40° C.
  UPLC analysis (Area % main peak): 100 Area %
[2]; 4 w, 40° C., 75% RH
  UPLC analysis (Area % main peak): 100 Area %
[2]; 4 w, RT
  UPLC analysis (Area % main peak): 100 Area %
[2]; 40-60° C.
  Time stable in solid state: at least 4 weeks
[2]; 1 h, 80° C.
  UPLC analysis (Area % main peak): 100 Area %
[2]; 1 d, 80° C.
  UPLC analysis (Area % main peak): 100 Area %
[2]; 8 d, 80° C.
  UPLC analysis (Area % main peak): 100 Area %
[2]; solid state, various temperatures
  Degradation products: < 0.5%
[3]
  Excipient compatibility (CompaS assay): compatible with almost all excipients
[3]; 1 day
  Stability towards oxidation: stable
[3]; in solution
  Stability towards daylight: stable
[3]; in solution, time dependent
  Stability in the Suntest: moderately stable to unstable
[3]; pH 3 to pH 7 at RT
  Stability in solution: stable
[3]; pH above 7 or below 3
  Stability in solution at higher or lower pH: degradation was observed
[3]; prolonged exposure
  Stability towards oxidation: some sensitivity
[3]; solid state
  Stability after exposure to light: stable
[3]; up to 8 days, 80° C.
  Stability in solid state: stable
[4]; aqueous solutions, 22 °C, aqueous buffer, pH>3, read-out: Solubility in aqueous solutions
  solubility: < 4 µg/mL
[4]; fasted state simulated intestinal fluid (FaSSIF), 22 °C, fassif, read-out: Solubility in fasted state simulated intestinal fluid (FaSSIF)
  solubility: 6 µg/mL (≈ 13.9 µM)
[4]; fed state simulated intestinal fluid (FeSSIF), 22 °C, fessif, read-out: Solubility in fed state simulated intestinal fluid (FeSSIF)
  solubility: 22 µg/mL (≈ 51 µM)
[4]; in the presence of surfactants (e.g., Tween-80, sodium dodecyl sulfate, dioctyl sulfosuccinate, Pluronic F68) and cyclodextrins
  Solubility increase: 50-100 fold
[4]; organic solvents, organic solvent or mixture, ambient temperature (22° C.), read-out: Solubility in most of the tested organic solvents
  solubility: < 50000 µg/mL
[4]; simulated gastric fluid (SGF), 22 °C, simulated gastric fluid, read-out: Solubility in simulated gastric fluid (SGF)
  solubility: 19 µg/mL (≈ 44 µM)
[5]
  Thermodynamic stability: thermodynamically stable

## Cc1cc2c(s1)Nc1ccccc1N=C2N1CCN(C)CC1 [Olanzapine, 2-Methyl-4-(4-methyl-1-piperazinyl)-10H-thieno[2,3-b][1,5]benzodiazepine]
SD rats [6]; glucose 2 g/kg per os 1 hour post treatment
  Glucose tolerance (oral glucose tolerance test): dose-dependent glucose intolerance
SD rats [6]; male SD rats
  Fasting blood glucose: dose-dependent increase
  Fasting insulin: dose-dependent increase
SD rats [7]
  Glucose tolerance (oral glucose tolerance test): glucose intolerance
SD rats [7]; male SD rats
  Fasting blood glucose: increase
SD rats [8]; acute treatment, 10 mg/kg, glucose 2 g/kg per os
  Glucose tolerance (oral glucose tolerance test): glucose intolerance
SD rats [8]; acute treatment, 10 mg/kg, male SD rats
  Fasting blood glucose: increase

## Cn1ncc(C(=O)N2CCOCC2)c1C(=O)Nc1ccn2nc(-c3ccccc3)nc2c1 [compound of Formula I, 1-methyl-4-(morpholine-4-carbonyl)-N-(2-phenyl[1,2,4]triazolo[1,5-a]pyridin-7-yl)-1H-pyrazole-5-carboxamide]
[9]
  Key secondary: Subject-rated Self Assessment of Stuttering: Key secondary: Superior efficacy on the Subject-rated Self
  Safety: effect on blood glucose and lipids: No or minimal effect on blood glucose and lipids
  Safety: patients with significant weight gain (greater than 7% versus baseline): Less than 5% of patients with significant weight gain (greater
  Secondary: percent of patients with stuttering freedom: Secondary: Superior percent of patients with stuttering
SD rats [7]
  Glucose tolerance (oral glucose tolerance test): did not induce any change
SD rats [8]; repeated treatment, 8 days, 0.3 mg/kg
  Fasting blood glucose: no change
SD rats [8]; repeated treatment, 8 days, 0.3 mg/kg, alone
  Glucose tolerance (oral glucose tolerance test): slight glucose tolerance improvement
